Assay results taken from patent EP0329295A1, “Renin inhibiting peptides with polar end groups” (THE UPJOHN COMPANY, priority 1988, dated 1989).
*1 amine or outer side, *2 acyl side, *3 side chain or, on linkers, in order; H or OH if unused. Where a SMILES comes first, the peptide text is derived from it. [ ]: non-standard residue; d: D form. The star is where a group is joined. NH(β-GlcNAc) = CC(=O)N[C@@H]1[C@@H](O)[C@H](O)[C@@H](CO)O[C@H]1N*; X1 = CC(C)C[C@H](N[*:1])[C@@H](O)C[C@H](C(=O)[*:2])C(C)C; X2 = OC[C@H]1O[C@@H](N*)[C@@H](O)[C@@H](O)[C@@H]1O; GlcN = OC[C@H]1OC(O)[C@H](N*)[C@@H](O)[C@@H]1O; NMeH = CN[C@@H](Cc1c[nH]cn1)C(=O)O; NHCH2(2-pyridyl) = c1ccc(CN*)nc1; Boc = CC(C)(C)OC(=O)*; CO = O=C([*:1])[*:2]

Each compound was assayed against T1, renin (Homo sapiens, UniProt P00797) (assay: renin inhibitory activity (IC50), determined as described in EP 0173481, pages 103-105). Conditions: renin inhibition; values given in molar units.
T1 sequence (P00797 67-406): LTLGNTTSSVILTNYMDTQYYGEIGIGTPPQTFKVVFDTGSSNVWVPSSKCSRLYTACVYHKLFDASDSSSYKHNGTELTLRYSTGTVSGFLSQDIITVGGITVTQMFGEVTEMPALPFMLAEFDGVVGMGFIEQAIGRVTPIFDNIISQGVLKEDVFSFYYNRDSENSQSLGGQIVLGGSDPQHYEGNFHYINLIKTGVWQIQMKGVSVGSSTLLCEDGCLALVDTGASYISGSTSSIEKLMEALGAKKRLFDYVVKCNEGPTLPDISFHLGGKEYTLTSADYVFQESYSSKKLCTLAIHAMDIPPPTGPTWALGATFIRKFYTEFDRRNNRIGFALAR
Type: biochemical
From the text: The determination of renin inhibitory activity of the compounds of the present invention (ICso's) are well known to one of ordinary skill in the art, as, for example, described in published European application 0173481, published 5 March 1986, pages 103-105.

Row | SMILES | IC50 [nM]
1 | CC[C@H](C)[C@H](NC(=O)[C@@H](C[C@H](O)[C@H](CC(C)C)NC(=O)[C@H](Cc1c[nH]cn1)N(C)C(=O)[C@H](Cc1ccccc1)NC(=O)[C@@H]1CCCN1C(=O)[C@H](CC(=O)N[C@@H]1O[C@H](CO)[C@@H](O)[C@H](O)[C@H]1NC(C)=O)NC(=O)OC(C)(C)C)C(C)C)C(=O)NCc1ccccn1 [Example 36, β-N-AcGLc-α-N-Boc-Asn-Pro-Phe-N-MeHis-Leu[CH(OH)CH2]-Val-Ile-AMP] (Boc-D(NH(β-GlcNAc))PF[NMeH][X1]I-{NHCH2(2-pyridyl)}) | 0.41
2 | CC(C)[C@H](C[C@H](O)[C@H](CC1CCCCC1)NC(=O)[C@H](Cc1c[nH]cn1)N(C)C(=O)[C@H](Cc1ccccc1)NC(=O)[C@@H]1CCCN1C(=O)N[C@H]1C(O)O[C@H](CO)[C@@H](O)[C@@H]1O)C(=O)NC[C@H](C)O (relative stereo) [Example 29, [1 S-[1 R*,2R*,4R*(R*)]]-1-[[(2-Deoxy-D-glucopyranos-2-yl)amino]carbonyl]-L-Prolyl-L-phenylalaryl-N-[1-(cyclohexylmethyl)-2-hydroxy-4-[[(2-hydroxypropyl)-amino]carbonyl]-5-methylhexyl]-Nα-methyl-L-histidinamide] | 1.5
3 | COC(=O)CC[C@H](NC(=O)[C@@H](C[C@H](O)[C@H](CC1CCCCC1)NC(=O)[C@H](Cc1c[nH]cn1)N(C)C(=O)[C@H](Cc1ccccc1)NC(=O)[C@@H]1CCCN1C(=O)NC(CO)(CO)CO)C(C)C)C(=O)NCc1ccccn1 (relative stereo) [Example 32, [1 S-[1R*,2R*,4R*(R*)]]-1-[[[2-Hydroxy-1,1-bis(hydroxymethyl)ethyl]amino]carbonyl]-L-prolyl-L-phenylalaryl-N-[1-(cyclohexylmethyl)-2-hydroxy-4-[[[4-methoxy-4-oxo-1-[[(2-pyridinylmethyl)amino]carbonyl]-butyl]-amino]carbonyl]-5-methyl-hexyl]-Nα-methyl-L-histidinamide] | 0.3
4 | CC[C@H](C)[C@H](NC(=O)[C@@H](C[C@H](O)[C@H](CC(C)C)NC(=O)[C@H](Cc1c[nH]cn1)N(C)C(=O)[C@H](Cc1ccccc1)NC(=O)[C@@H]1CCCN1C(=O)[C@H](CC(=O)N[C@@H]1O[C@H](CO)[C@@H](O)[C@H](O)[C@@H]1O)NC(=O)OC(C)(C)C)C(C)C)C(=O)NCc1ccccn1 [Example 38, β-Man-α-N-Boc-Asn-Pro-Phe-N-MeHis-Leu[CH(OH)CH2]-Val-Ile-AMP] (Boc-D(X2)PF[NMeH][X1]I-{NHCH2(2-pyridyl)}) | 0.55
5 | CC[C@H](C)[C@H](NC(=O)[C@@H](C[C@H](O)[C@H](CC(C)C)NC(=O)[C@H](Cc1c[nH]cn1)N(C)C(=O)[C@H](Cc1ccccc1)NC(=O)[C@@H]1CCCN1C(=O)N[C@H]1C(O)O[C@H](CO)[C@@H](O)[C@@H]1O)C(C)C)C(=O)NCc1ccccn1 (stereo partly drawn) [Example 9, N-(Glucosaminocarbonyl)-Pro-Phe-N(Me)His-LVA-lie-AMP] ({GlcN-CO}-PF[NMeH][X1]I-{NHCH2(2-pyridyl)}) | 0.49

Same assay, conditions: renin inhibition; values in nM

Row | SMILES | IC50 [nM]
6 | CC(C)C[C@H](O)[C@H](O)[C@H](CC1CCCCC1)NC(=O)[C@H](Cc1c[nH]cn1)N(C)C(=O)[C@H](Cc1ccccc1)NC(=O)[C@@H]1CCCN1C(=O)NC(CO)(CO)CO (relative stereo) [Example 12, L-Histidinamide, 1-[[[2-hydroxy-1,1-bis(hydroxymethyl)ethyl]amino]carbonyl]-L-prolyl-L-phenylalanyl-N-[1 (cyclohexylmethyl)-2,3-dihydroxy-5-methylhexyl]-Nα-methyl-, [1 S-(1 R*,2S*,3R*)-]-] | 0.26
7 | CC(C)C[C@H](O)[C@H](O)[C@H](CC1CCCCC1)NC(=O)[C@H](Cc1c[nH]cn1)N(C)C(=O)[C@H](Cc1ccccc1)NC(=O)[C@@H]1CCCN1C(=O)N[C@H]1C(O)O[C@H](CO)[C@@H](O)[C@@H]1O (relative stereo) [Example 13, L-Histadinamide, 1-([(2-deoxy-D-glucopyranos-2-yl)amino]carbonyl]-L-prolyl-L-phenylalanyl-N-[1-(cyclohexylmethyl)-2,3-dihydroxy-5-methylhexyl]-N.aIpha.-methyl-, [1 S-(1 R*,2S*,3R(*)]]-] | 2.4
8 | COc1ccc(C[C@H](NC(=O)[C@@H]2CCCN2C(=O)NC(CO)(CO)CO)C(=O)N[C@@H](Cc2c[nH]cn2)C(=O)N[C@@H](CC2CCCCC2)[C@@H](O)[C@@H](O)CC(C)C)cc1 [Example 14, L-Histidinamide, 1-[[[2-hydroxy-1,1-bis(hydroxymethyl)ethyl]amino]carbonyl]-L-prolyl-O-methyl-L-tyrosyl-N-[1-(cyclohexylmethyl)-2,3-dihydroxy-5-methylhexyl]-, [1S-(1R*,2S*,3R*)]-] | 0.21
9 | COc1ccc(C[C@H](NC(=O)[C@@H]2CCCN2C(=O)N[C@H]2C(O)O[C@H](CO)[C@@H](O)[C@@H]2O)C(=O)N[C@@H](Cc2c[nH]cn2)C(=O)N[C@@H](CC2CCCCC2)[C@@H](O)[C@@H](O)CC(C)C)cc1 (relative stereo) [Example 15] | 2.3
